As usually defined, the pKa is the pH at which an ionisable group is half protonated. High values mean a group that holds its proton tightly, low ones a group that gives up its proton readily. One may read the EC50 as the midpoint of the concentration-response curve.

Like-named read-outs stand apart in the source and are kept apart here. Marks after values point to notes of the source that are not given here.

We go through 3 molecules from publication PMC12711630 (Cell Reports. Physical Science, 2025).

For series [1], the target named is T1, (α4)3(β2)2 (LS isoform) α4β2 nAChR (Homo sapiens, UniProt P17787+P43681).
T1 construct: expressed in transfected cells; host or cells: Xenopus laevis oocytes, nuclear injection of cDNA in plasmid pCI (10 α4 : 1 β2 for LS, 1 α4 : 10 β2 for HS)
Briefly: Inhibition of ACh EC80 current responses, Xenopus oocytes, LS isoform. It is filed as cell-based. As to conditions: co-applied with ACh EC80 300 µM.

Series [2] has as its target T2, 5-HT3A receptor (Homo sapiens, UniProt P46098).
T2 sequence (P46098 24-478): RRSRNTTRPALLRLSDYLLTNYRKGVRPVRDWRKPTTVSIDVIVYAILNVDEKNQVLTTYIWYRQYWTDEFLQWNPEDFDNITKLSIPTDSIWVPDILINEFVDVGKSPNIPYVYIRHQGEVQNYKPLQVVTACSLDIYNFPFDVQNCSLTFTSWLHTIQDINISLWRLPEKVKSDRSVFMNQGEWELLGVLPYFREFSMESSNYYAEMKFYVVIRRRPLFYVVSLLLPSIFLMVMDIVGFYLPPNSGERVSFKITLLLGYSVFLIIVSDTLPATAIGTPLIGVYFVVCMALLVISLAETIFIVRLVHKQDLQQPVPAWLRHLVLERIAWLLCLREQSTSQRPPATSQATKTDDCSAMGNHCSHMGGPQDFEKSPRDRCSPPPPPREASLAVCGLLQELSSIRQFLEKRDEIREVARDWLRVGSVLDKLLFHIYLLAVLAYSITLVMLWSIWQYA
Briefly: FlexStation fluorescent membrane-potential dye assay, transfected HEK 293 cells. It is filed as cell-based. The following applies: for EC50: n=4.

The target of series [3] is T3, (α4)3(β2)2 (LS isoform) α4β2 nAChR WT (Homo sapiens, UniProt P17787+P43681).
T3 construct: expressed in transfected cells; host or cells: Xenopus laevis oocytes, nuclear injection of cDNA in plasmid pCI (10 α4 : 1 β2 for LS, 1 α4 : 10 β2 for HS)
The series can be described thus: Two-electrode voltage clamp, Xenopus oocytes expressing LS α4β2 nAChR, wild type. It is filed as cell-based.

Series [4] has as its target T4, (α4)2(β2)3 (HS isoform) α4β2 nAChR WT (Homo sapiens, UniProt P17787+P43681).
T4 construct: expressed in transfected cells; host or cells: Xenopus laevis oocytes, nuclear injection of cDNA in plasmid pCI (10 α4 : 1 β2 for LS, 1 α4 : 10 β2 for HS)
Briefly: Two-electrode voltage clamp, Xenopus oocytes expressing HS α4β2 nAChR, wild type. It is filed as cell-based. Background: Two-electrode voltage clamp is typically applied to oocytes expressing channels or transporters.

The target of series [5] is T2, 5-HT3A receptor. Briefly: Inhibition of [3H]GR65630 binding, transfected HEK293 cell membranes. As to conditions: for IC50: n=3.
The target in series [6] is T5, (α4)2(β2)3 (HS isoform) α4β2 nAChR (Homo sapiens, UniProt P17787+P43681).
T5 construct: expressed in transfected cells; host or cells: Xenopus laevis oocytes, nuclear injection of cDNA in plasmid pCI (10 α4 : 1 β2 for LS, 1 α4 : 10 β2 for HS)
Briefly: Inhibition of ACh EC80 current responses, Xenopus oocytes, HS isoform. It is filed as cell-based. The following applies: co-applied with ACh EC80 30 µM.

Series [7] deals with T6, (α4)3(β2)2 (LS isoform) α4β2 nAChR α4T139V (Homo sapiens, UniProt P17787+P43681, T139V).
T6 construct: expressed in transfected cells; host or cells: Xenopus laevis oocytes, nuclear injection of cDNA in plasmid pCI
The series can be described thus: Two-electrode voltage clamp, Xenopus oocytes, LS α4β2 nAChR α4T139V. It is filed as cell-based.

For series [8] the following is noted: cited from earlier work.
A short description of series [9]: Spectrophotometric titration pKa determination.
For the next series, the target named is α4β2. The following applies: read-out: affinity at α4β2; cited from earlier work.

T4 sequence (P43681 27-627): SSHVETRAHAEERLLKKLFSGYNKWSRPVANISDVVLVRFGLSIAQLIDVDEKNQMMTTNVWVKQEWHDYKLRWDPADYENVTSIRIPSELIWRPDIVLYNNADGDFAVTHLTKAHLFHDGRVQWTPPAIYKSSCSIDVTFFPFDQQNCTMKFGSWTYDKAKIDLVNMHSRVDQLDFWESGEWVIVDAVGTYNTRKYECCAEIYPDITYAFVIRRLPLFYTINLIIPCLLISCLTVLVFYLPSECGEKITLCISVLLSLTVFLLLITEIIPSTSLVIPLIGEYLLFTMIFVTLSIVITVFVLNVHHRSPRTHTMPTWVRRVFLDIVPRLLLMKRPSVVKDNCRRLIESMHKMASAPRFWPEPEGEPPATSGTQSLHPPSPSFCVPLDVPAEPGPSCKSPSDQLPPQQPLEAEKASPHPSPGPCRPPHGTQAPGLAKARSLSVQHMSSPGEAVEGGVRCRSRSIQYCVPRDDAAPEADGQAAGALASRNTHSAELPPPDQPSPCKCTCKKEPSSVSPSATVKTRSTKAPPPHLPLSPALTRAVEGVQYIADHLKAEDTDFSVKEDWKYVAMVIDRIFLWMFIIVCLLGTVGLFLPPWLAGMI
T4 sequence (P17787 26-502): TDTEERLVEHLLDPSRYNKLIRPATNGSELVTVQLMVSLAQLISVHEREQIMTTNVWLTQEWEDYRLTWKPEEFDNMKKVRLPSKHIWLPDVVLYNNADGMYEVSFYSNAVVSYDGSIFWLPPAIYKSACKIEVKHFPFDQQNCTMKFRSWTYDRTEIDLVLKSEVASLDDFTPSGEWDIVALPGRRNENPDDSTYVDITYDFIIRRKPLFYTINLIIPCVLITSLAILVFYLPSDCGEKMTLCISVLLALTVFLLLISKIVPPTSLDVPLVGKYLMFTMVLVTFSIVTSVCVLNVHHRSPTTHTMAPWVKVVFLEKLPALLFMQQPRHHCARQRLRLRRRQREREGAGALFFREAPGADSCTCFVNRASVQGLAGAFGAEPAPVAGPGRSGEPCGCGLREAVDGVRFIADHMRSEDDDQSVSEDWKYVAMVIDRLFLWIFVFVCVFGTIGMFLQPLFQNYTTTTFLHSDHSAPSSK
T3 sequence (P43681 27-627): as the sequence (P43681 27-627) above
T3 sequence (P17787 26-502): as the sequence (P17787 26-502) above
T5 sequence (P43681 27-627): as the sequence (P43681 27-627) above
T5 sequence (P17787 26-502): as the sequence (P17787 26-502) above
T1 sequence (P43681 27-627): as the sequence (P43681 27-627) above
T1 sequence (P17787 26-502): as the sequence (P17787 26-502) above
T6 sequence (P43681 27-627 T139V): as the sequence (P43681 27-627) above, with T113V counted along it
T6 sequence (P17787 26-502): as the sequence (P17787 26-502) above

As for `c1cnc2nc3c(nc2n1)C1CNCC3C1` [N2 varenicline 6], the IC50 in [1] was more than 1000 µM; at 5-HT3A receptor [5] ([3H]GR65630 0.3 nM, read-out: IC50, inhibition of [3H]GR65630 binding), 75.8 µM; in [6] it was more than 1000 µM. Besides, the “functional response at 5-HT3A receptors” value at 5-HT3A receptor [2] (concentrations up to 30 µM) is given as “No signiﬁcant responses”. Also, the RE in [3] is 0.0032 ± 0.0023 ^a; in series [4], 0.0010 ± 0.0001 ^a. Moreover, the “fold increase of IC50 against [3H]GR65630 compared to varenicline 1” value at 5-HT3A receptor [5] came to 250 fold. The molecule further came in with a pKa in the series “physchem” of 7.31 ± 0.05.
Consider `c1cnc2cc3c(cc2n1)[C@@H]1CNC[C@H]3C1` [Varenicline 1, varenicline, reference compound], for which the EC50 at 5-HT3A receptor [2] (EC50, activation of 5-HT3A receptors, membrane-potential sensitive dye) was 0.4 µM; at 5-HT3A receptor [2] (pEC50, activation of 5-HT3A receptors, mean + SEM) it was 0.437 µM. Besides, the RE in [3] (Table 3, LS (α4)3(β2)2, relative to maximal ACh response) turned out to be 0.38 ± 0.025; in series [4] (Table 3, HS (α4)2(β2)3, relative to maximal ACh response), 0.14 ± 0.012. In [7], the “reduction of RE vs WT” value was determined as 50%. Also, the “pKa, literature value” in series [8] (ref Pfizer[80]) is 9.2; in series [8] (ref Rollema et al.[81]), 9.3; in [8] (ref Unal et al.[82]), 9.22 ± 0.13. This molecule displayed a pKa in [9] of 8.9 ± 0.1. Moreover, the IC50 on 5-HT3A receptor [5] (mean + SEM, read-out: pIC50, inhibition of [3H]GR65630 binding (converted)) is 0.304 µM.
`c1ccc2c(c1)C1CNCC2C1` [benzo variant, 2,3,4,5-tetrahydro-1H-1,5-methanobenzo[d]azepine]: the Ki on α4β2 was 0.02 µM.
